The values below come from US10259808B2 (Genentech, Inc., priority 2015, dated 2019).

Counter-ions that a name gives are not always drawn.

In one test the target is T1, RORc ligand binding domain (Homo sapiens, UniProt P51449).
T1 sequence (P51449 269-508 limits assumed): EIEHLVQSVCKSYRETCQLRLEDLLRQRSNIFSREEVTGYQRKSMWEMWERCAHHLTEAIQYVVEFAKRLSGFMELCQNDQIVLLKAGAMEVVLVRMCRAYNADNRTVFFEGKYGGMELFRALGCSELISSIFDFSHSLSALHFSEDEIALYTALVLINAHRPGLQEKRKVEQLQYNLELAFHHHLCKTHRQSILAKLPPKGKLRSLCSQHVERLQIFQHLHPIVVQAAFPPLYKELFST
Kind of test: In vitro RORc ligand binding assay (25-[3H]hydroxycholesterol displacement).
Details: not given
The IC50 is the concentration that inhibits the measured activity by half. For `C[C@H]1CC[C@H](c2ccccc2)S(=O)(=O)N1Cc1ccc(C2(C(=O)n3nccc3N)CCOCC2)cc1F`, the IC50 stood at 19.6 nM.

`Cc1nnc(COCC2(c3ccc(CN4[C@@H](C)CC[C@H](c5ccccc5)S4(=O)=O)c(F)c3)CCOCC2)o1` returned an IC50 of 90.3 nM.

Turning to `C[C@H]1CC[C@H](c2ccccc2)S(=O)(=O)N1Cc1ccc(C2(C(=O)NC3CCOCC3)CCOCC2)cc1F`, the IC50 amounted to 171 nM.

For `C[C@H]1CC[C@@H](c2ccccc2)S(=O)(=O)N1Cc1cc(F)c([C@]2(c3c[nH]c(=O)o3)C[C@@](O)(C3(C)CC3)C2)cc1F` (racemic) [Example 166, 5-[1-[2,5-difluoro-4-[[rac-(3S,6S)-3-methyl-1,1-dioxo-6-phenyl-thiazinan-2-yl]methyl]phenyl]-3-hydroxy-3-(1-methylcyclopropyl)cyclobutyl]-3H-oxazol-2-one], the IC50 is 15.5 nM.

With `C[C@H]1CC[C@H](c2ccccc2)S(=O)(=O)N1Cc1cc(F)c([C@]2(c3nn(C)c(=O)[nH]3)C[C@@](C)(O)C2)cc1F` (racemic) [Example 168, 5-[1-[2,5-difluoro-4-[[rac-(3S,6R)-3-methyl-1,1-dioxo-6-phenyl-thiazinan-2-yl]methyl]phenyl]-3-hydroxy-3-methyl-cyclobutyl]-2-methyl-4H-1,2,4-triazol-3-one], the IC50 is 39.8 nM.

The molecule `COC[C@]1(O)C[C@@](c2n[nH]c(=O)o2)(c2cc(F)c(CN3[C@@H](C)CC[C@H](c4ccccc4)S3(=O)=O)cc2F)C1` (racemic) [Example 169, 5-[1-[2,5-difluoro-4-[[rac-(3S,6R)-3-methyl-1,1-dioxo-6-phenyl-thiazinan-2-yl]methyl]phenyl]-3-hydroxy-3-(methoxymethyl)cyclobutyl]-3H-1,3,4-oxadiazol-2-one] registered an IC50 of 6.4 nM.

For the molecule `C[C@H]1CC[C@H](c2ccccc2)S(=O)(=O)N1Cc1cc(F)c([C@]2([C@@H](O)Cc3ncn[nH]3)C[C@](C)(O)C2)cc1F` (racemic) [Example 170, 3-[2,5-difluoro-4-[[rac-(3S,6R)-3-methyl-1,1-dioxo-6-phenyl-thiazinan-2-yl]methyl]phenyl]-1-methyl-3-[rac-(1S)-1-hydroxy-2-(1H-1,2,4-triazol-5-yl)ethyl]cyclobutanol], the IC50 is 29.5 nM.

`C[C@H]1CC[C@H](c2ccccc2)S(=O)(=O)N1Cc1cc(F)c([C@]2([C@H](O)Cc3ncn[nH]3)C[C@](C)(O)C2)cc1F` (racemic) [Example 171, 3-[2,5-difluoro-4-[[rac-(3S,6R)-3-methyl-1,1-dioxo-6-phenyl-thiazinan-2-yl]methyl]phenyl]-1-methyl-3-[rac-(1R)-1-hydroxy-2-(1H-1,2,4-triazol-5-yl)ethyl]cyclobutanol]: the IC50 was 50.3 nM.

Molecule `C[C@H]1CC[C@H](c2ccccc2)S(=O)(=O)N1Cc1cc(F)c([C@]2([C@H]3CNC(=O)O3)C[C@](C)(O)C2)cc1F` (racemic) [Example 172, rac-(5S)-5-[1-[2,5-difluoro-4-[[rac-(3S,6R)-3-methyl-1,1-dioxo-6-phenyl-thiazinan-2-yl]methyl]phenyl]-3-hydroxy-3-methyl-cyclobutyl]oxazolidin-2-one] had an IC50 of 51.9 nM.

`C[C@H]1CC[C@H](c2ccccc2)S(=O)(=O)N1Cc1cc(F)c([C@]2(c3n[nH]c(=O)o3)C[C@](C)(N)C2)cc1F` (racemic) [Example 173, 5-[3-amino-1-[2,5-difluoro-4-[[rac-(3S,6R)-3-methyl-1,1-dioxo-6-phenyl-thiazinan-2-yl]methyl]phenyl]-3-methyl-cyclobutyl]-3H-1,3,4-oxadiazol-2-one; hydrochloride] came in with an IC50 of 180 nM.

In turn, `C[C@H]1CC[C@H](c2ccccc2)S(=O)(=O)N1Cc1cc(F)c([C@]2(c3nn(CC#N)c(=O)o3)C[C@](C)(O)C2)cc1F` (racemic) [Example 174, 2-[5-[1-[2,5-difluoro-4-[[rac-(3S,6R)-3-methyl-1,1-dioxo-6-phenyl-thiazinan-2-yl]methyl]phenyl]-3-hydroxy-3-methyl-cyclobutyl]-2-oxo-1,3,4-oxadiazol-3-yl]acetonitrile] showed an IC50 of 23 nM.

As to `C[C@H]1CC[C@H](c2ccccc2)S(=O)(=O)N1Cc1cc(F)c([C@]2(c3noc(=O)[nH]3)C[C@@](C)(O)C2)cc1F` (racemic) [Example 175, 3-[1-[2,5-difluoro-4-[[rac-(3S,6R)-3-methyl-1,1-dioxo-6-phenyl-thiazinan-2-yl]methyl]phenyl]-3-hydroxy-3-methyl-cyclobutyl]-4H-1,2,4-oxadiazol-5-one], the IC50 was 62 nM.

In turn, `C[C@H]1CC[C@H](c2ccccc2)S(=O)(=O)N1Cc1cc(F)c([C@]2(c3n[nH]c(=O)o3)C[C@@](O)(CC#N)C2)cc1F` (racemic) [Example 176, 2-[3-[2,5-difluoro-4-[[rac-(3S,6R)-3-methyl-1,1-dioxo-6-phenyl-thiazinan-2-yl]methyl]phenyl]-1-hydroxy-3-(2-oxo-3H-1,3,4-oxadiazol-5-yl)cyclobutyl]acetonitrile] had a half-inhibitory concentration (IC50) of 5.4 nM.

In turn, `C[C@H]1CC[C@H](c2ccccc2)S(=O)(=O)N1Cc1cc(F)c([C@]2(Cn3cn[nH]c3=O)C[C@](C)(O)C2)cc1F` (racemic) [Example 178, 4-[[1-[2,5-difluoro-4-[[rac-(3S,6R)-3-methyl-1,1-dioxo-6-phenyl-thiazinan-2-yl]methyl]phenyl]-3-hydroxy-3-methyl-cyclobutyl]methyl]-1H-l,2,4-triazol-5-one] displayed an IC50 of 6.1 nM.

The molecule `C[C@H]1CC[C@H](c2ccccc2)S(=O)(=O)N1Cc1cc(F)c([C@]2(CN3C(=O)CNC3=O)C[C@](C)(O)C2)cc1F` (racemic) [Example 179, 3-[[1-[2,5-difluoro-4-[[rac-(3S,6R)-3-methyl-1,1-dioxo-6-phenyl-thiazinan-2-yl]methyl]phenyl]-3-hydroxy-3-methyl-cyclobutyl]methyl]imidazolidine-2,4-dione] came in with an IC50 of 6900 nM.

Take `C[C@H]1CC[C@H](c2ccccc2)S(=O)(=O)N1Cc1cc(F)c([C@]2(COc3cnccn3)C[C@](C)(O)C2)cc1F` (racemic) [Example 180, 3-[2,5-difluoro-4-[[rac-(3S,6R)-3-methyl-1,1-dioxo-6-phenyl-thiazinan-2-yl]methyl]phenyl]-1-methyl-3-(pyrazin-2-yloxymethyl)cyclobutanol]: the IC50 came out at 8 nM.

As for `C[C@H]1CC[C@H](c2ccccc2)S(=O)(=O)N1Cc1cc(F)c([C@]2(NC(=O)c3csnn3)C[C@](C)(O)C2)cc1F` (racemic) [Example 181, N-[1-[2,5-difluoro-4-[[rac-(3S,6R)-3-methyl-1,1-dioxo-6-phenyl-thiazinan-2-yl]methyl]phenyl]-3-hydroxy-3-methyl-cyclobutyl]thiadiazole-4-carboxamide], the IC50 came to 13 nM.

For `C[C@H]1CC[C@H](c2ccccc2)S(=O)(=O)N1Cc1cc(F)c([C@]2(Cn3cncn3)C[C@](C)(O)C2)cc1F` (racemic) [Example 182, 3-[2,5-difluoro-4-[[rac-(3S,6R)-3-methyl-1,1-dioxo-6-phenyl-thiazinan-2-yl]methyl]phenyl]-1-methyl-3-(1,2,4-triazol-1-ylmethyl)cyclobutanol], the IC50 is 7.3 nM.

Turning to `C[C@H]1CC[C@H](c2ccccc2)S(=O)(=O)N1Cc1cc(F)c([C@]2(Cn3ncccc3=O)C[C@](C)(O)C2)cc1F` (racemic) [Example 183, 2-[[1-[2,5-difluoro-4-[[rac-(3S,6R)-3-methyl-1,1-dioxo-6-phenyl-thiazinan-2-yl]methyl]phenyl]-3-hydroxy-3-methyl-cyclobutyl]methyl]pyridazin-3-one], the IC50 came out at 170 nM.

For the molecule `C[C@H]1CC[C@H](c2ccccc2)S(=O)(=O)N1Cc1cc(F)c(C2(c3c[nH]c(=O)o3)CC(O)(CC3CC3)C2)cc1F` (mixture of isomers) [Example 184, 5-[3-(cyclopropylmethyl)-1-[2,5-difluoro-4-[[rac-(3S,6R)-3-methyl-1,1-dioxo-6-phenyl-thiazinan-2-yl]methyllphenyl]-3-hydroxy-cyclobutyl]-3H-oxazol-2-one], the IC50 is 6.2 nM.

The molecule `C[C@H]1CC[C@H](c2ccccc2)S(=O)(=O)N1Cc1cc(F)c([C@]2(c3c[nH]c(=O)[nH]3)C[C@](C)(O)C2)cc1F` (racemic) [Example 185, 4-[1-[2,5-difluoro-4-[[rac-(3S,6R)-3-methyl-1,1-dioxo-6-phenyl-thiazinan-2-yl]methyl]phenyl]-3-hydroxy-3-methyl-cyclobutyl]-1,3-dihydroimidazol-2-one] came in with an IC50 of 19 nM.

For the molecule `C[C@H]1CC[C@H](c2ccccc2)S(=O)(=O)N1Cc1cc(F)c([C@]2(c3nc(CO)n[nH]3)C[C@](C)(O)C2)cc1F` (racemic) [Example 186, 3-[2,5-difluoro-4-[[rac-(3S,6R)-3-methyl-1,1-dioxo-6-phenyl-thiazinan-2-yl]methyl]phenyl]-3-[3-(hydroxymethyl)-1H-1,2,4-triazol-5-yl]-1-methyl-cyclobutanol], the IC50 worked out at 4.4 nM.

Staying with this test, now noted: IC50 values for RORc.
The molecule `C[C@H]1CC[C@H](c2ccccc2)S(=O)(=O)N1Cc1cc(F)c(C2(c3c[nH]c(=O)o3)CC(O)C2)cc1F` (mixture of isomers) [Example 163, 5-[1-[2,5-difluoro-4-[[rac-(3S,6R)-3-methyl-1,1-dioxo-6-phenyl-thiazinan-2-yl]methyl]phenyl]-3-hydroxy-cyclobutyl]-3H-oxazol-2-one] registered an IC50 of 4.3 nM.

Molecule `C[C@H]1CC[C@H](c2ccccc2)S(=O)(=O)N1Cc1cc(F)c([C@]2(c3nn(C)c(=O)o3)C[C@](C)(O)C2)cc1F` (racemic) [Example 167] showed an IC50 of 19.2 nM.

As to `C[C@H]1CC[C@H](c2ccccc2)S(=O)(=O)N1Cc1cc(F)c(C2(c3c[nH]c(=O)o3)CC(O)C2)cc1F` (mixture of isomers) [Example 177, 5-[1-[2,5-difluoro-4-[[rac-(3S,6R)-3-methyl-1,1-dioxo-6-phenyl-thiazinan-2-yl]methyl]phenyl]-3-hydroxy-cyclobutyl]-3H-oxazol-2-one], the IC50 amounted to 4.3 nM.
